Results taken from patent EP1007530B1, “6-O-SUBSTITUTED ERYTHROMYCIN COMPOUNDS AND METHOD FOR MAKING SAME” (ABBOTT LABORATORIES, priority 1996, dated 1997).

Tests used:
Experiment in all cases: In vitro assay of antibacterial activity (agar dilution MIC)
Assay type in all cases: cell-based
Candida albicans CCH 442 = details: BHI agar, 35-37 °C, 20 to 24 hours, unit assumed
Method in brief: (§1)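 BHI agar dilution; inoculum 1:100 (1:10 slow-growing strains, e.g. Streptococcus), Steers replicator; 35-37 °C, 20 to 24 hours. MIC = lowest concentration with no growth, slight haze or sparsely isolated colonies vs growth control. Erythromycin A reference plate.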

[1] = test system: Enterobacter aerogenes ATCC 13048; details: BHI agar, 35-37 °C, 20 to 24 hours, unit assumed
Method in brief: as §1

[2] = test system: Enterococcus faecium ATCC 8043; details: BHI agar, 35-37 °C, 20 to 24 hours, unit assumed
Method in brief: as §1

Escherichia coli DC-2 = details: BHI agar, 35-37 °C, 20 to 24 hours, unit assumed
Method in brief: as §1

Escherichia coli H560 = details: BHI agar, 35-37 °C, 20 to 24 hours, unit assumed
Method in brief: as §1

Escherichia coli JUHL = details: BHI agar, 35-37 °C, 20 to 24 hours, in µg/mL (unit assumed)
Method in brief: as §1

Escherichia coli KNK 437 = details: BHI agar, 35-37 °C, 20 to 24 hours, unit assumed
Method in brief: as §1

Escherichia coli SS = details: BHI agar, 35-37 °C, 20 to 24 hours, unit assumed
Method in brief: as §1

[3] = test system: Klebsiella pneumoniae ATCC 8045; details: BHI agar, 35-37 °C, 20 to 24 hours, unit assumed
Method in brief: as §1

[4] = test system: Micrococcus luteus ATCC 4698; details: BHI agar, 35-37 °C, 20 to 24 hours, unit assumed
Method in brief: as §1

[5] = test system: Micrococcus luteus ATCC 9341; details: BHI agar, 35-37 °C, 20 to 24 hours, unit assumed
Method in brief: as §1

[6] = test system: Mycobacterium smegmatis ATCC 114; details: BHI agar, 35-37 °C, 20 to 24 hours, unit assumed
Method in brief: as §1

[7] = test system: Nocarrdia asteroides ATCC 9970; details: BHI agar, 35-37 °C, 20 to 24 hours, unit assumed
Method in brief: as §1

[8] = test system: Providencia struartii CMX 640; details: BHI agar, 35-37 °C, 20 to 24 hours, unit assumed
Method in brief: as §1

[9] = test system: Pseudomonas aeruginosa 5007; details: BHI agar, 35-37 °C, 20 to 24 hours, unit assumed
Method in brief: as §1

[10] = test system: Pseudomonas aeruginosa BMH10; details: BHI agar, 35-37 °C, 20 to 24 hours, in µg/mL (unit assumed)
Method in brief: as §1

[11] = test system: Pseudomonas aeruginosa DPHD-2862; details: BHI agar, 35-37 °C, 20 to 24 hours, unit assumed
Method in brief: as §1

[12] = test system: Pseudomonas aeruginosa DPHD-5263; details: BHI agar, 35-37 °C, 20 to 24 hours, in µg/mL (unit assumed)
Method in brief: as §1

[13] = test system: Pseudomonas aeruginosa K799/61; details: BHI agar, 35-37 °C, 20 to 24 hours, unit assumed
Method in brief: as §1

[14] = test system: Pseudomonas aeruginosa K799/WT; details: BHI agar, 35-37 °C, 20 to 24 hours, unit assumed
Method in brief: as §1

Pseudomonas capacia 2961 = details: BHI agar, 35-37 °C, 20 to 24 hours, in µg/mL (unit assumed)
Method in brief: as §1

[15] = test system: Staphylococcus aureus 1775; details: BHI agar, 35-37 °C, 20 to 24 hours, unit assumed
Method in brief: as §1

[16] = test system: Staphylococcus aureus A-5278; details: BHI agar, 35-37 °C, 20 to 24 hours, unit assumed
Method in brief: as §1

[17] = test system: Staphylococcus aureus ATCC 6538P; details: BHI agar, 35-37 °C, 20 to 24 hours, unit assumed
Method in brief: as §1

[18] = test system: Staphylococcus aureus CMX 553; details: BHI agar, 35-37 °C, 20 to 24 hours, unit assumed
Method in brief: as §1

[19] = test system: Staphylococcus aureus CMX 642A; details: BHI agar, 35-37 °C, 20 to 24 hours, unit assumed
Method in brief: as §1

[20] = test system: Staphylococcus aureus NCTC10649M; details: BHI agar, 35-37 °C, 20 to 24 hours, unit assumed
Method in brief: as §1

[21] = test system: Staphylococcus epidermidis 3519; details: BHI agar, 35-37 °C, 20 to 24 hours, unit assumed
Method in brief: as §1

[22] = test system: Streptococcus agalactiae CMX 508; details: BHI agar, 35-37 °C, 20 to 24 hours, unit assumed
Method in brief: as §1

[23] = test system: Streptococcus bovis A-5169; details: BHI agar, 35-37 °C, 20 to 24 hours, unit assumed
Method in brief: as §1

[24] = test system: Streptococcus pyogenes 930; details: BHI agar, 35-37 °C, 20 to 24 hours, unit assumed
Method in brief: as §1

[25] = test system: Streptococcus pyogenes EES61; details: BHI agar, 35-37 °C, 20 to 24 hours, unit assumed
Method in brief: as §1

[26] = test system: Streptococcus pyogenes PIU 2548; details: BHI agar, 35-37 °C, 20 to 24 hours, unit assumed
Method in brief: as §1

[27] = test system: Actinetobacter calcoaceticus CMX 669; details: BHI agar, 35-37 °C, 20 to 24 hours, unit assumed
[28] = test system: Staphylococcus aureus A5177; details: BHI agar, 35-37 °C, 20 to 24 hours, unit assumed

CC[C@H]1OC(=O)[C@H](C)[C@@H](O[C@H]2C[C@@](C)(OC)[C@@H](O)[C@H](C)O2)[C@H](C)[C@@H](O[C@@H]2O[C@H](C)C[C@H](N(C)C)[C@H]2O)[C@](C)(OCC=O)C[C@@H](C)C(=O)[C@H](C)[C@@H](O)[C@]1(C)O [Example 8, Compound of Formula (X): X is =O, R is 2-oxoethyl]
MIC (Candida albicans CCH 442): > 100 µg/mL | MIC [1]: > 100 µg/mL | MIC [2]: 0.39 µg/mL | MIC (Escherichia coli DC-2): > 100 µg/mL | MIC (Escherichia coli H560): 50 µg/mL | MIC (Escherichia coli JUHL): 100 | MIC (Escherichia coli KNK 437): > 100 µg/mL | MIC (Escherichia coli SS): 1.56 µg/mL | MIC [3]: > 100 µg/mL | MIC [4]: 1.56 µg/mL | MIC [5]: 0.1 µg/mL | MIC [6]: 6.2 µg/mL | MIC [7]: 0.39 µg/mL | MIC [8]: > 100 µg/mL | MIC [9]: > 100 µg/mL | MIC [10]: > 100 | MIC [11]: > 100 µg/mL | MIC [12]: > 100 | MIC [13]: 3.1 µg/mL | MIC [14]: > 100 µg/mL | MIC (Pseudomonas capacia 2961): > 100 | MIC [15]: > 100 µg/mL | MIC [16]: > 100 µg/mL | MIC [17]: 0.78 µg/mL | MIC [18]: 0.78 µg/mL | MIC [19]: 0.78 µg/mL | MIC [20]: 0.78 µg/mL | MIC [21]: 0.78 µg/mL | MIC [22]: 0.39 µg/mL | MIC [23]: 0.2 µg/mL | MIC [24]: > 100 µg/mL | MIC [25]: 0.1 µg/mL | MIC [26]: 25 µg/mL | MIC [27]: 50 µg/mL | MIC [28]: 12.5 µg/mL
